Test results published in PubChem BioAssay AID1918946 (Molecular Pharmacology Branch, DTP, NCI, 2023).

Tested on: 885512-296-R-J2-PDC complex spheroid viability
Assay: Anticancer human tumor 885512-296-R-J2-PDC patient-derived breast carcinoma cell line growth inhibition
Settings: for IC50: curve of first compound; for viability, T/C: stronger effect = lower value
In short: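 Complex spheroids of tumor cells with HUVEC and human MSCs, exposed to iadademstat combined with other agents. Each agent tested in half-log steps from near clinical Cmax (else 10 microM top), DMSO ≤0.25%.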

[1] = second compound 0.1 µM, first compound 0.0316 µM
[2] = second compound 0.1 µM, first compound 0.1 µM
[3] = second compound 0.316 µM, first compound 0.0316 µM
[4] = second compound 0.316 µM, first compound 0.1 µM
[5] = second compound 1 µM, first compound 0.0316 µM
[6] = second compound 1 µM, first compound 0.1 µM
[7] = second compound 3.16 µM, first compound 0.0316 µM
[8] = second compound 3.16 µM, first compound 0.1 µM
[9] = second compound 10 µM, first compound 0.0316 µM
[10] = second compound 10 µM, first compound 0.1 µM
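Note: spheroids exposed to agents for 7 days before viability read.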

SMILES: CC(C)CC(NC(=O)CNC(=O)c1cc(Cl)ccc1Cl)B1OC(=O)CC(CC(=O)O)(C(=O)O)O1 (stereo not given) + NC1CC1c1ccc(-c2cccc(O)c2)cc1
- IC50 (second compound 0.1 µM): 4.92 nM
- IC50 (second compound 0.316 µM): 5.16 nM
- IC50 (second compound 1 µM): 5.08 nM
- IC50 (second compound 3.16 µM): 4.23 nM
- IC50 (second compound 10 µM): 3.35 nM
- viability, T/C (second compound 0.1 µM, first compound 0.000316 µM): 125%
- viability, T/C (second compound 0.1 µM, first compound 0.001 µM): 126%
- viability, T/C (second compound 0.1 µM, first compound 0.00316 µM): 75%
- viability, T/C (second compound 0.1 µM, first compound 0.01 µM): 10.1%
- viability, T/C [1]: 1.77%
- viability, T/C [2]: 0.48%
- viability, T/C (second compound 0.316 µM, first compound 0.000316 µM): 130%
- viability, T/C (second compound 0.316 µM, first compound 0.001 µM): 113%
- viability, T/C (second compound 0.316 µM, first compound 0.00316 µM): 79.6%
- viability, T/C (second compound 0.316 µM, first compound 0.01 µM): 10.3%
- viability, T/C [3]: 2.04%
- viability, T/C [4]: 0.45%
- viability, T/C (second compound 1 µM, first compound 0.000316 µM): 132%
- viability, T/C (second compound 1 µM, first compound 0.001 µM): 116%
- viability, T/C (second compound 1 µM, first compound 0.00316 µM): 78.6%
- viability, T/C (second compound 1 µM, first compound 0.01 µM): 9.38%
- viability, T/C [5]: 1.61%
- viability, T/C [6]: 0.42%
- viability, T/C (second compound 3.16 µM, first compound 0.000316 µM): 121%
- viability, T/C (second compound 3.16 µM, first compound 0.001 µM): 103%
- viability, T/C (second compound 3.16 µM, first compound 0.00316 µM): 65.7%
- viability, T/C (second compound 3.16 µM, first compound 0.01 µM): 8.61%
- viability, T/C [7]: 1.75%
- viability, T/C [8]: 0.31%
- viability, T/C (second compound 10 µM, first compound 0.000316 µM): 82.8%
- viability, T/C (second compound 10 µM, first compound 0.001 µM): 87.5%
- viability, T/C (second compound 10 µM, first compound 0.00316 µM): 52%
- viability, T/C (second compound 10 µM, first compound 0.01 µM): 5.61%
- viability, T/C [9]: 1.05%
- viability, T/C [10]: 0.22%

SMILES: O=C(c1cc(Cc2n[nH]c(=O)c3ccccc23)ccc1F)N1CCN(C(=O)C2CC2)CC1 + NC1CC1c1ccc(-c2cccc(O)c2)cc1
- IC50 (second compound 0.1 µM): 945 nM
- IC50 (second compound 0.316 µM): 896 nM
- IC50 (second compound 1 µM): 805 nM
- IC50 (second compound 3.16 µM): 660 nM
- IC50 (second compound 10 µM): 361 nM
- viability, T/C [1]: 116%
- viability, T/C [2]: 106%
- viability, T/C (second compound 0.1 µM, first compound 0.316 µM): 90.9%
- viability, T/C (second compound 0.1 µM, first compound 1 µM): 48.6%
- viability, T/C (second compound 0.1 µM, first compound 3.16 µM): 13.1%
- viability, T/C (second compound 0.1 µM, first compound 10 µM): 4.93%
- viability, T/C [3]: 103%
- viability, T/C [4]: 114%
- viability, T/C (second compound 0.316 µM, first compound 0.316 µM): 76.6%
- viability, T/C (second compound 0.316 µM, first compound 1 µM): 51.7%
- viability, T/C (second compound 0.316 µM, first compound 3.16 µM): 10.8%
- viability, T/C (second compound 0.316 µM, first compound 10 µM): 5.15%
- viability, T/C [5]: 96.9%
- viability, T/C [6]: 105%
- viability, T/C (second compound 1 µM, first compound 0.316 µM): 88.7%
- viability, T/C (second compound 1 µM, first compound 1 µM): 40.4%
- viability, T/C (second compound 1 µM, first compound 3.16 µM): 13.3%
- viability, T/C (second compound 1 µM, first compound 10 µM): 4.98%
- viability, T/C [7]: 111%
- viability, T/C [8]: 80.8%
- viability, T/C (second compound 3.16 µM, first compound 0.316 µM): 75.9%
- viability, T/C (second compound 3.16 µM, first compound 1 µM): 41.1%
- viability, T/C (second compound 3.16 µM, first compound 3.16 µM): 9.4%
- viability, T/C (second compound 3.16 µM, first compound 10 µM): 4.81%
- viability, T/C [9]: 80.1%
- viability, T/C [10]: 70%
- viability, T/C (second compound 10 µM, first compound 0.316 µM): 55.1%
- viability, T/C (second compound 10 µM, first compound 1 µM): 22.2%
- viability, T/C (second compound 10 µM, first compound 3.16 µM): 6.21%
- viability, T/C (second compound 10 µM, first compound 10 µM): 4.07%

SMILES: Nc1ncn(C2CC(O)C(CO)S2)c(=O)n1 (stereo not given) + NC1CC1c1ccc(-c2cccc(O)c2)cc1
- IC50 (second compound 0.1 µM): 4.6 nM
- IC50 (second compound 0.316 µM): 4.26 nM
- IC50 (second compound 1 µM): 4.39 nM
- IC50 (second compound 3.16 µM): 2.81 nM
- IC50 (second compound 10 µM): 0.989 nM
- viability, T/C (second compound 0.1 µM, first compound 0.000949 µM): 91.2%
- viability, T/C (second compound 0.1 µM, first compound 0.003 µM): 62%
- viability, T/C (second compound 0.1 µM, first compound 0.00949 µM): 29.4%
- viability, T/C (second compound 0.1 µM, first compound 0.03 µM): 15.9%
- viability, T/C (second compound 0.1 µM, first compound 0.0949 µM): 8.39%
- viability, T/C (second compound 0.1 µM, first compound 0.3 µM): 4.32%
- viability, T/C (second compound 0.316 µM, first compound 0.000949 µM): 84.1%
- viability, T/C (second compound 0.316 µM, first compound 0.003 µM): 60.6%
- viability, T/C (second compound 0.316 µM, first compound 0.00949 µM): 26.1%
- viability, T/C (second compound 0.316 µM, first compound 0.03 µM): 14.8%
- viability, T/C (second compound 0.316 µM, first compound 0.0949 µM): 8.48%
- viability, T/C (second compound 0.316 µM, first compound 0.3 µM): 4.51%
- viability, T/C (second compound 1 µM, first compound 0.000949 µM): 75%
- viability, T/C (second compound 1 µM, first compound 0.003 µM): 60.4%
- viability, T/C (second compound 1 µM, first compound 0.00949 µM): 29.5%
- viability, T/C (second compound 1 µM, first compound 0.03 µM): 13.8%
- viability, T/C (second compound 1 µM, first compound 0.0949 µM): 7.96%
- viability, T/C (second compound 1 µM, first compound 0.3 µM): 4.21%
- viability, T/C (second compound 3.16 µM, first compound 0.000949 µM): 61.6%
- viability, T/C (second compound 3.16 µM, first compound 0.003 µM): 50.2%
- viability, T/C (second compound 3.16 µM, first compound 0.00949 µM): 25.9%
- viability, T/C (second compound 3.16 µM, first compound 0.03 µM): 12.9%
- viability, T/C (second compound 3.16 µM, first compound 0.0949 µM): 6.26%
- viability, T/C (second compound 3.16 µM, first compound 0.3 µM): 4.09%
- viability, T/C (second compound 10 µM, first compound 0.000949 µM): 50.1%
- viability, T/C (second compound 10 µM, first compound 0.003 µM): 39.8%
- viability, T/C (second compound 10 µM, first compound 0.00949 µM): 17.2%
- viability, T/C (second compound 10 µM, first compound 0.03 µM): 9.45%
- viability, T/C (second compound 10 µM, first compound 0.0949 µM): 5.85%
- viability, T/C (second compound 10 µM, first compound 0.3 µM): 3.58%
